Measurements as given in ChEMBL document CHEMBL4715885, “Novel dual LSD1/HDAC6 inhibitors for the treatment of multiple myeloma” (Bioorg Med Chem Lett, 2021).
Activity calls are given as the source filed them. No cut-off for these calls is given here.

Tests used:
[1] = target: T1, Lysine-specific histone demethylase 1A (Homo sapiens, UniProt O60341); assay: Inhibition of LSD1 (unknown origin)
[2] = target: T2, Protein deacetylase HDAC6 (Homo sapiens, UniProt Q9UBN7); assay: Inhibition of human HDAC6 (unknown origin) using RHKKAc as substrate by fluorescence method; conditions: read-out: IC50
T2 sequence (Q9UBN7 whole entry): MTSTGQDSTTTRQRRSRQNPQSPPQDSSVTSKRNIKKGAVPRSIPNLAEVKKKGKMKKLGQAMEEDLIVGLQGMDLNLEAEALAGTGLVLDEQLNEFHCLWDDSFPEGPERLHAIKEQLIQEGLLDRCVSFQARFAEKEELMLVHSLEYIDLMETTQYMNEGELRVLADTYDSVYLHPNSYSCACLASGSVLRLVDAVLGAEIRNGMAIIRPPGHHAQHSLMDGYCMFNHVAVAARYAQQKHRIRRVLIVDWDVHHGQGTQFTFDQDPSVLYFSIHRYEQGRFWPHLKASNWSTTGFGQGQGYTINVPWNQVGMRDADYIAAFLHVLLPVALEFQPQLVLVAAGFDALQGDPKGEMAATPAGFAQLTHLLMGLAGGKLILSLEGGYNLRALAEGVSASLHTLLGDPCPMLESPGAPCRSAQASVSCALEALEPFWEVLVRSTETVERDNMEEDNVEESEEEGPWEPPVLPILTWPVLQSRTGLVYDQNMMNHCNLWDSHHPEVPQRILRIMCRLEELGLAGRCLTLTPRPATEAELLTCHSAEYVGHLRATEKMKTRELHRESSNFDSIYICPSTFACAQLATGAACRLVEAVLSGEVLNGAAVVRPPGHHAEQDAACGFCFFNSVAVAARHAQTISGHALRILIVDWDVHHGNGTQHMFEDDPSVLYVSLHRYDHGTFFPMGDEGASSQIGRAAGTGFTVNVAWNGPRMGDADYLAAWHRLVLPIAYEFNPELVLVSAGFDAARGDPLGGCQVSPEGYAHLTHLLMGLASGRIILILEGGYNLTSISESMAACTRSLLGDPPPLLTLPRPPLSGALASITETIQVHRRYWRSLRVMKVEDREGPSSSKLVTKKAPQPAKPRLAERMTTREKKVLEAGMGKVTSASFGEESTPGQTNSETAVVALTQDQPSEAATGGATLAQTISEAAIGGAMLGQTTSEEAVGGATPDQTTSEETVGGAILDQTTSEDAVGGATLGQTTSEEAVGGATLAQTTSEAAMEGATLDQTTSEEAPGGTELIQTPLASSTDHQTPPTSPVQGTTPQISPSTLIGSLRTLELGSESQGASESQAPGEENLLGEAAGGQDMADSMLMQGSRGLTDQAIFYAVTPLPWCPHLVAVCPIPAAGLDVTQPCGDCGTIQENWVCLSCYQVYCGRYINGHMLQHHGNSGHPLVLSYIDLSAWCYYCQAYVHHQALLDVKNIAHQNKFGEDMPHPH

[3] = target: Histone deacetylase 1 (Homo sapiens) (UniProt Q13547); assay: Inhibition of human HDAC1 at 1uM using RHKKAc as substrate by fluorescence method relative to control
MM1.S [4] = assay: Antiproliferative activity against human MM1.S cells assessed as reduction in cell viability after 144 hrs; assay type: functional, cell-based
[5] = Stability in human liver microsomes assessed as parent compound remaining measured after 30 mins; assay type: ADME, Microsome; conditions: liver microsomes, read-out: Stabilty
[6] = Stability in mouse liver microsomes assessed as parent compound remaining measured after 30 mins; assay type: ADME, Microsome; conditions: liver microsomes, read-out: Stabilty
MM1.S [7] = assay: Antitumour activity against human MM1.S cells xenografted in SCID mouse assessed as tumour growth inhibition at 25 mg/kg, po for 12 days relative to control; assay type: functional; conditions: 288 h, time 12 day, read-out: TGI
[8] = target: T1, Lysine-specific histone demethylase 1A; assay: Inhibition of LSD1 in human MM1.S cells assessed as modulation of p21 mRNA expression at 0.5 uM after 6 to 24 hrs by qRT-PCR analysis; assay type: cell-based; conditions: time lower 6.0 hrs, time upper […]
[9] = target: T1, Lysine-specific histone demethylase 1A; assay: Inhibition of LSD1 in human MM1.S cells assessed as modulation of c-Myc mRNA expression at 0.5 uM after 6 to 24 hrs by qRT-PCR analysis; assay type: cell-based; conditions: time lower 6.0 hrs, time upper […]
[10] = target: T1, Lysine-specific histone demethylase 1A; assay: Inhibition of LSD1 in human MM1.S cells assessed as modulation alpha-tubulin acetylation at 100 to 500 nM after 1 to 3 hrs by Western blot analysis; assay type: cell-based; conditions: dose 100-500 nM, time 1-3 hrs
[11] = target: T3, Protein deacetylase HDAC6 (Homo sapiens) (UniProt Q9UBN7); assay: Inhibition of HDAC6 in human MM1.S cells assessed as modulation of p21 mRNA expression at 0.5 uM after 6 to 24 hrs by qRT-PCR analysis; assay type: cell-based; conditions: time lower 6.0 hrs, time upper […]
T3 sequence (whole entry): T2 sequence (Q9UBN7 whole entry)

[12] = target: T3, Protein deacetylase HDAC6 (Homo sapiens); assay: Inhibition of HDAC6 in human MM1.S cells assessed as modulation of c-Myc mRNA expression at 0.5 uM after 6 to 24 hrs by qRT-PCR analysis; assay type: cell-based; conditions: time lower 6.0 hrs, time upper […]
[13] = target: T3, Protein deacetylase HDAC6 (Homo sapiens); assay: Inhibition of HDAC6 in human MM1.S cells assessed as modulation alpha-tubulin acetylation at 100 to 500 nM after 1 to 3 hrs by Western blot analysis; assay type: cell-based; conditions: dose 100-500 nM, time 1-3 hrs
MM1.S [14] = assay: Antitumour activity against human MM1.S cells xenografted in SCID mouse assessed as tumour growth inhibition at 50 mg/kg, […] for 12 days relative to control; assay type: functional; conditions: 288 h, time 12 day, read-out: TGI

Chain of Histone deacetylase 1 (Homo sapiens) (Q13547 whole entry): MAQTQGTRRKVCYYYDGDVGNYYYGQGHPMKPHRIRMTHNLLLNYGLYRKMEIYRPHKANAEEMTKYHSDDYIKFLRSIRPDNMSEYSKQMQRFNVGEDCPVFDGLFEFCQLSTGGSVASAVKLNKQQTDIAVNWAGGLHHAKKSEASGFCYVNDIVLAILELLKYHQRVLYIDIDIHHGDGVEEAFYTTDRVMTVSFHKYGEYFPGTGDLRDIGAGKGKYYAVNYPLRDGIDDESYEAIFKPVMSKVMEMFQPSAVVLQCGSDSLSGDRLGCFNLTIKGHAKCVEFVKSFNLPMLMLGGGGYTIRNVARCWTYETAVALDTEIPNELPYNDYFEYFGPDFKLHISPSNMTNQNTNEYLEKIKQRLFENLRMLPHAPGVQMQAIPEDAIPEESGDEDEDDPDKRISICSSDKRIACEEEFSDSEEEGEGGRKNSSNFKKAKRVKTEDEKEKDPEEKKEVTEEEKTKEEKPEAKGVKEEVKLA

| inhibition [3] [%] | EC50 (MM1.S [4]) [nM] | remaining at 0.5 h [5] [%] | remaining at 0.5 h [6] [%] | SMILES | IC50 ([1]; read-out: IC50) [nM] | IC50 [2] [nM] | other results |
| --- | --- | --- | --- | --- | --- | --- | --- |
| 35.4 | 11 | 82 | 77 | Cc1noc(C)c1-c1ccc([C@H]2C[C@@H]2NCC2CCN(CCCc3ccc(C(=O)NO)cc3)CC2)cc1 (racemic) | 59 | 58 | – |
| 8.37 | 48 | – | – | CN(CC1CCN(CCCc2ccc(C(=O)NO)cc2)CC1)[C@H]1C[C@@H]1c1ccccc1 (racemic) | 465 | – | – |
| – | – | – | – | O=C(O)c1ccc(CN2CCC(CN[C@@H]3C[C@H]3c3ccccc3)CC2)cc1 [GSK2879552] | – | – | inhibition in vivo at 25 mg/kg (MM1.S [7]): 40% |
| – | 4 | 51 | 50 | O=C(NO)c1ccc(CCCN2CCC(CN[C@H]3C[C@@H]3c3ccccc3)CC2)cc1 [listing 1 of 2 here] | – | – | – |
| 41.6 | 7 | 77 | 66 | Cn1cc(-c2ccc([C@H]3C[C@@H]3NCC3CCN(CCCc4ccc(C(=O)NO)cc4)CC3)cc2)cn1 (racemic) | 43 | 66 | – |
| -0.22 | > 10000 | 88 | 95 | O=C(NO)c1csc(CCCN2CCC(CN[C@H]3C[C@@H]3c3ccccc3)CC2)n1 (racemic) | 26 | > 10000 | – |
| 18.4 | – | – | – | O=C(NO)c1ccc(CCCN2CCC(CN[C@H]3C[C@@H]3c3ccccc3)CC2)cc1 (racemic) | – | – | inhibition [8]: Active; inhibition [9]: Active; inhibition [10]: Active; inhibition [11]: Active; inhibition [12]: Active; inhibition [13]: Active |
| – | 0.85 | 93 | 77 | O=C(CCCCCCNC(=O)c1cnc(N(c2ccccc2)c2ccccc2)nc1)NO [RICOLINOSTAT] | – | – | IC50 [1]: Not Active; inhibition in vivo at 50 mg/kg (MM1.S [14]): 36% |
| 0.7 | 25 | 84 | < 5 | O=C(NO)c1ccc(CCCN2CC(CN[C@H]3C[C@@H]3c3ccccc3)C2)cc1 (racemic) | 29 | 184 | – |
| 8.36 | > 10000 | 63 | 80 | O=C(O)c1ccc(CCCN2CCC(CN[C@H]3C[C@@H]3c3ccccc3)CC2)cc1 (racemic) | – | > 10000 | – |
| 10.7 | 63 | 90 | 87 | O=C(NO)c1cnc(CCCN2CCC(CN[C@H]3C[C@@H]3c3ccccc3)CC2)s1 (racemic) | 22 | 517 | – |
| – | – | 72 | 32 | O=C(NO)c1ccc(CCCN2CCc3cc(CN[C@H]4C[C@@H]4c4ccc(F)cc4)ccc3C2)cc1 (racemic) | – | – | – |
| 57.6 | 3 | 38 | 26 | O=C(NO)c1ccc(CCCN2CCC(CN[C@@H]3C[C@H]3c3ccccc3)CC2)cc1 | – | – | – |
| 6.85 | > 10000 | 78 | 76 | O=C(NO)c1coc(CCCN2CCC(CN[C@H]3C[C@@H]3c3ccccc3)CC2)n1 (racemic) | 26 | > 10000 | – |
| 50.7 | 28 | 77 | 68 | O=C(NO)c1ccc(CCN2CCC(CN[C@H]3C[C@@H]3c3ccccc3)CC2)cc1 (racemic) | 15 | 490 | – |
| 2.06 | – | – | – | O=C(NO)c1ccc(CCCN2CCC(CN[C@H]3C[C@@H]3c3ccccc3)CC2)cc1 [listing 2 of 2 here] | – | – | – |
| 12.9 | – | 63 | 53 | O=C(NO)c1ccc(CN2CCC(CN[C@H]3C[C@@H]3c3ccccc3)CC2)cc1 (racemic) | – | – | – |

| SMILES | inhibition [3] [%] | EC50 (MM1.S [4]) [nM] | remaining at 0.5 h [5] [%] | remaining at 0.5 h [6] [%] | IC50 ([1]; read-out: IC50) [nM] | IC50 [2] [nM] | other results |
| --- | --- | --- | --- | --- | --- | --- | --- |
| CN(C)CCNC(=O)c1ccc([C@H]2C[C@@H]2NCC2CCN(CCCc3ccc(C(=O)NO)cc3)CC2)cc1 (racemic) | 58.1 | – | 40 | 36 | 22 | 130 | – |
| COc1ccc([C@H]2C[C@@H]2NCc2cn3c(n2)CN(CCCc2ccc(C(=O)NO)cc2)CC3)cc1 (racemic) | 26.6 | – | 73 | < 5 | 1100 | 28 | – |
| O=C(NO)c1ccc(CCCN2CCC(CN[C@H]3C[C@@H]3c3ccc(-c4ccc(F)cc4)cc3)CC2)cc1 (racemic) | 9.74 | – | 92 | 75 | 821 | 59 | – |
| O=C(NO)c1ccc(CCCN2CCC(CN[C@H]3C[C@@H]3c3ccc(C(=O)N4CCCCC4)cc3)CC2)cc1 (racemic) | 53.9 | – | 65 | 72 | 23 | – | – |
| O=C(NO)c1ccc(CCCN2CCC(CN[C@H]3C[C@@H]3c3ccc(-c4ccc(Cl)cc4)cc3)CC2)cc1 (racemic) | 23.6 | – | 77 | 81 | 2 | 19 | – |
| O=C(NO)c1ccc(CCCN2CCC(CN[C@H]3C[C@@H]3c3ccc(F)cc3)CC2)cc1 (racemic) | 12.7 | – | 54 | 66 | 6 | 51 | – |
| COc1ccc([C@H]2C[C@@H]2NCC2CCN(CCCc3ccc(C(=O)NO)cc3)CC2)cc1 (racemic) | 46.7 | – | 74 | 91 | 6 | 38 | – |
| O=C(NO)c1ccc(CCCN2CCC(CN[C@H]3C[C@@H]3c3ccc(C(=O)N4CCOCC4)cc3)CC2)cc1 (racemic) | 47.6 | – | 89 | 82 | 22 | – | – |
| O=C(NO)c1ccc(CCCN2CCC(CN[C@H]3C[C@@H]3c3ccc(OCc4ccc(F)cc4)cc3)CC2)cc1 (racemic) | -1.79 | – | 79 | 56 | 4 | 12 | – |
| Cn1ccc(-c2ccc([C@H]3C[C@@H]3NCC3CCN(CCCc4ccc(C(=O)NO)cc4)CC3)cc2)cc1=O (racemic) | 59.4 | – | 73 | 72 | 21 | 46 | – |
| O=C(NO)c1ccc(CCCN2CCC(CN[C@H]3C[C@@H]3c3ccc(-c4ccc(C(F)(F)F)nc4)cc3)CC2)cc1 (racemic) | 33.5 | – | 79 | 85 | 19 | 100 | – |
| N#Cc1ccc(-c2ccc([C@H]3C[C@@H]3NCC3CCN(CCCc4ccc(C(=O)NO)cc4)CC3)cc2)cc1 (racemic) | – | – | 76 | 75 | 32 | – | – |
